Assay results: US20100292231A1, “Indazole Compounds for Treating Inflammatory Disorders, Demyelinating Disorders and Cancers” (priority 2007, published 2010)
pEC50, pIC50: −log10 of the molar value.

How the values were obtained:
[1] = test system: Raw264.7 (murine macrophage-like cells); test: sulforhodamine B (SRB) cytotoxicity assay; assay type: cell-based; settings: Mus musculus, RAW264.7, 144 h; 25 μM highest concentration, diluted 1:5; 6 days; read-out: IC50 Measured Against Raw264.7 Cell Line
FLT3 = target: T1, FLT3 (Homo sapiens, UniProt P36888); test: SelectScreen FLT3 kinase dose response assay; assay type: biochemical; settings: ATP 100 micromolar; for pEC50: dose response, 4 parameter Hill equation, read-out: FLT3 Inhibition EC50
T1 construct: purchased Invitrogen (SelectScreen platform)
T1 sequence (P36888 27-993): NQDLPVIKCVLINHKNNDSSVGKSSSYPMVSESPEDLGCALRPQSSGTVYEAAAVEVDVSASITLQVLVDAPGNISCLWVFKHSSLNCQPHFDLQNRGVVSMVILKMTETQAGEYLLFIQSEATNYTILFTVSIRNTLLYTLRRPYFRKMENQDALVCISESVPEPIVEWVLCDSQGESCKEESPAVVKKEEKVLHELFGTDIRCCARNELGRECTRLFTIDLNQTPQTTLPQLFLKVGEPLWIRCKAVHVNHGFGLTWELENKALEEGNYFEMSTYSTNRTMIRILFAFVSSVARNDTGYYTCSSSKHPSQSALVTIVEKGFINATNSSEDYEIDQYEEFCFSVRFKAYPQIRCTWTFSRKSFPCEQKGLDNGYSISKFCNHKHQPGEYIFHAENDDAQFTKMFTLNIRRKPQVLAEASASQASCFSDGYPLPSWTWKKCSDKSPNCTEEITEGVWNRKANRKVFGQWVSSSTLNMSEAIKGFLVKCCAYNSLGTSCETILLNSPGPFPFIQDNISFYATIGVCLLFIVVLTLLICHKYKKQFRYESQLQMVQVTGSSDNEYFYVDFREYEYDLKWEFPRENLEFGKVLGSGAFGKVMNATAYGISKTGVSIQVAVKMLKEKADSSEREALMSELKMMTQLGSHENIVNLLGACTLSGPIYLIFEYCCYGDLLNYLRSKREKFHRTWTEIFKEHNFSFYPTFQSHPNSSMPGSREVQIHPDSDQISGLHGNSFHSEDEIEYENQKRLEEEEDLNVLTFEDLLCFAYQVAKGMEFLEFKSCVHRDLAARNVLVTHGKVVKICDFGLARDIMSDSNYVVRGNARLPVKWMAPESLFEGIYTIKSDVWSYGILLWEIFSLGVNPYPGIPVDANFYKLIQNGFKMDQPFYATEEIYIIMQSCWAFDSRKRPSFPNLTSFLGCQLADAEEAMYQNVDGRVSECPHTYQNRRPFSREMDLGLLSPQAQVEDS
Experimental: The terms “IC50” and “EC50” are used interchangeably. As used herein, “EC50” refers to nMolar concentration at median percent inhibition determined by dose respose (DR) assay. As used herein, the term “E1000” refers to percent inhibition at 1000 nMolar determined by assay.
Testing of the compounds described in this invention was carried out using the SelectScreen™ platform from Invitrogen, Inc. (Carlsbad. Calif., USA) and the details of its performance are readily viewed via the web by linking to: http://www.invitrogen.com/downloads/SelectScrn_Brochure.pdf.
Briefly, the approach is based on treating each specific kinase with a unique substrate and optical reporter system in the presence of ATP at 100 micromolar. In controls, the substrate is phosphorylated and a baseline optimal response is recorded.
The compounds were then re-tested by adding graded amounts of putative inhibitor which were added in 5 separate increments to generate a dose response curve. The latter is obtained by fitting to a 4 parameter Hill equation, a sigmoid saturation equation.
For the compounds of this invention, the experimental conditions were as follows. The 2× FLT3/Tyr 02 peptide mixture was prepared in 50 mM HEPES pH 7.5, 0.01 BRIJ-35, 10 mM MgCl2, 1 mM EGTA. The final 10 uL kinase reaction consists of 0.6-76.0 ng FLT3 and 2 uM Tyr 02 peptide in 50 mM HEPES pH 7.5, 0.01% BRIJ-35, 10 mM MgCl2, 1 mM EGTA. After 1 hour kinase reaction incubation, 5 uL of a 1:64 dilution of development reagent A was added.

Row | Compound | pIC50 [1] | FLT3 Inhibition E1000 (percent inhibition at 1000 nMolar) (FLT3; 1000 nMolar compound) | pEC50 (FLT3) | inhibition at 1 µM (FLT3; 1000 nMolar compound, read-out: FLT3 Inhibition E1000 (percent inhibition at 1000 nMolar))
1 | CCN(CC)CCNC(=O)c1c(C)[nH]c(/C=C2\C(=O)Nc3ccc(F)cc32)c1C [Sunitinib, sunitinib, reference compound] | 6.12 |  |  | 
2 | Cc1nc2cc3nc(-c4cccs4)cnc3cc2n1C [AGL-2043, reference compound] |  | 93% | 7.42 | 
3 | c1ccc(-c2n[nH]c3c2oc2ccccc23)cc1 [GTP-14564, reference compound] |  | 95% | 7.59 | 
4 | O=c1c2c(F)ccc3ncn(c4ccc5[nH]ncc5c14)c32 [(XVIII)] |  |  | 5.88 | 47%
